Laboratory results from PMC6949133, “Application of a novel regulatable Cre recombinase system to define the role of liver and gut metabolism in drug oral bioavailability” (The Biochemical journal, 2015).

Columns and labels:
[1] = system: PhIP-DNA adducts in the colon; design: method as in PMID 21940903; conditions: RCN mice dosed orally with PhIP 2 weeks after 3MC, compared with PhIP alone; cited from earlier work
[2] = In vivo pharmacokinetics of probe drugs in WT and ERL (POR-deleted) mice, blood LC-MS/MS; conditions: for Cl / Cmax: mean ± S.D., n=3; for Cmax: po
Procedure: WT and ERL mice (n = 3) were pre-treated with corn oil or 3MC (4 or 40 mg/kg). A single dose of midazolam (5 mg/kg p.o.), or nelfinavir (50 mg/kg p.o.) or paroxetine (10 mg/kg p.o.) was administered on day 14 after 3MC treatment. Whole blood (10 μl) was taken from the tail vein at timed intervals after drug administration and transferred into a tube containing heparin (10 μl, 15 IU/ml).
For midazolam analysis, internal standard solution (10 μl; 500 ng of caffeine and 500 ng of resorpine) was added and proteins were precipitated using methanol (75 μl), followed by 8% sulfosalicylic acid (55 μl). Samples were mixed for 1 min and centrifuged at 13 000 g for 5 min. The supernatant was analysed for midazolam and the two internal standards by LC–MS/MS, as described previously. Standard curves were constructed by spiking blank blood samples with known amounts of midazolam. Extraction and protein precipitation were carried out as outlined above for the test samples.
For nelfinavir and paroxetine analysis, mouse blood extraction was performed by a method based on protein precipitation using acetonitrile containing sulfadimethoxine (100 ng/ml) as internal standard. Samples were vortex mixed for 1 min followed by centrifugation at 2800 g for 10 min. Supernatants were analysed by UPLC–MS/MS using a Xevo TQs mass spectrometer (Waters). Nelfinavir, paroxetine and sulfadimethoxine were separated on an Acquity UPLC BEH C18 column (1.7 μm particle size, 50 × 2.1 mm i.d.) by gradient elution with acetonitrile and water at a flow rate 0.6 ml/min. The cycle time of each analysis was 3 min. Matrix effects were assessed by dilution. Quantification of the analytes was performed in electrospray positive ionization mode using multiple reaction monitoring.
Pharmacokinetic parameters were calculated using WinNonLin software, version 3.1. A simple non-compartmental model was used to calculate the area under the curve (AUC), terminal half-life, Cmax and clearance. Statistical analysis of pharmacokinetic data was carried out using Student’s t tests.

[3] = Tolerability and gross liver phenotype of ERL mice after inducer dosing; format: in vivo, mouse
Procedure: (§1) Single doses of βNF (80 mg/kg body weight as a suspension in corn oil) were administered intraperitoneally (i.p.). Doses of 3MC between 0.5 and 40 mg/kg body weight (single injections) were administered i.p. in corn oil; in some experiments, three daily doses were administered, as detailed in the Figure legends. Mice were killed at the same time of day by a rising concentration of CO2 9 or 14 days after dosing and the following tissues removed and snap-frozen in liquid nitrogen: liver, lung, kidney, small intestine, large intestine, spleen and skin. Samples were then stored at − 80°C until processing for sub-cellular fractions.
The effects of a single dose of the polycyclic aromatic hydrocarbon AhR ligand βNF (80 mg/kg i.p.) on ERL mice were investigated in initial range-finding experiments (Figure 2A). Liver and small intestine tissues were harvested 9 or 14 days after dosing. […] On post mortem examination, βNF treated ERL mice had pale, mottled, enlarged livers which weighed approximately 60% more than those of either corn oil treated ERL mice or βNF treated WT animals. This phenotype is characteristic of POR deletion and is also observed in HRN and RCN animals. The effect on POR expression in the ERL liver and small intestine of a single dose of βNF (80 mg/kg i.p.) was similar to that observed in RCN mice following four daily doses (compare Figure 2A with Figure 1 of Finn et al.).
Both ERL and WT animals lost weight in response to this treatment.

POR [4] = test: POR expression by Western blot/densitometry in tissues of ERL mice after Cyp1a1 inducer; format: in vivo, mouse
Procedure: as §1
Microsomal fractions were prepared as described previously and stored at − 70°C until required. Microsomal protein concentrations were determined using the Bio-Rad Protein Assay Reagent (Bio-Rad Laboratories) and Western blot analysis was preformed as described previously using polyclonal antisera to rat P450s and POR [27, 28]. Immunoreactive proteins were detected using horseradish peroxidase (HRP)-conjugated polyclonal goat anti-rabbit, anti-mouse or anti-sheep immunoglobulin secondary antibodies, as appropriate (Dako). Bands were visualized using Immobilon™ chemiluminescent HRP-conjugated substrate (Millipore) and a FUJIFILM LAS-3000 mini imaging system (Fujifilm UK.). Densitometric analysis was performed using Multi Gauge V2.2 software (Fujifilm UK).

POR [5] = test: POR activity in microsomes of treated ERL mice, cytochrome c reduction; format: in vivo, mouse
Procedure: (§2) The low levels of cytochrome c reduction detected in the small intestine were further decreased (by 78%) in ERL animals treated with 40 mg/kg 3MC (36.2 ± 15.6 compared with 8.2 ± 3.3 nmol cytochrome c reduced/min/mg respectively, n = 3, mean + S.D., P < 0.01). No P450 activity was detected in small intestinal microsomes from either WT or ERL animals.

P450 = test: P450-mediated substrate turnover in liver of treated ERL mice; format: in vivo, mouse; conditions: 3MC 40 mg/kg, n=6
Procedure: as §2

[6] = liver and gut POR deletion compared with WT/control
[7] = liver only POR deletion relative to control

Cn1c(N)nc2ncc(-c3ccccc3)cc21 [PhIP, 2-amino-1-methyl-6-phenylimidazo[4,5-b]pyridine]
reduction of adduct formation in the colon [1]: 50%

Fc1ccc([C@@H]2CCNC[C@H]2COc2ccc3c(c2)OCO3)cc1 [Paroxetine, paroxetine]
increase in half-life ([2]; ERL (Por^lox/lox/Cre^Cyp1a1-KI), control: WT (Por^lox/lox), mouse, in vivo): 3.5 fold
change in Cmax ([2]; mouse, in vivo): essentially unchanged
decrease in clearance ([2]; mouse, in vivo): ~ 3 fold
increase in AUC ([2]; mouse, in vivo): 1.5 fold

O=c1cc(-c2ccccc2)oc2ccc3ccccc3c12 [βNF, β-naphthoflavone]
body weight loss over the course of the treatment ([3]; single dose βNF 80 mg/kg i.p.): 2 to 4 g
increase in liver weight vs corn oil treated ERL or βNF treated WT ([3]; single dose βNF 80 mg/kg i.p., 9 or 14 days): approximately 60%

Cc1ncc2n1-c1ccc(Cl)cc1C(c1ccccc1F)=NC2 [Midazolam, midazolam]
Cl ([2]; Control (WT + corn oil), single p.o. dose nelfinavir 50 mg/kg, paroxetine 10 mg/kg or midazolam 5 mg/kg): 113 ± 35 mL/min/kg
Cmax ([2]; ERL (Por^lox/lox/Cre^Cyp1a1-KI), mouse, in vivo, Liver and gut null (ERL + 3MC 40 mg/kg, day 14), single p.o. dose nelfinavir 50, paroxetine 10 or midazolam 5 mg/kg): 4460 ± 1530 ng/mL
Cmax ([2]; ERL (Por^lox/lox/Cre^Cyp1a1-KI), mouse, in vivo, Liver null (ERL + 3MC 4 mg/kg, day 14), single p.o. dose nelfinavir 50, paroxetine 10 or midazolam 5 mg/kg): 1850 ± 340 ng/mL
Cl ([2]; Liver and gut null (ERL + 3MC 40 mg/kg, day 14), single p.o. dose nelfinavir 50, paroxetine 10 or midazolam 5 mg/kg): 4.3 ± 0.9^••◦ ml/min/kg
Cl ([2]; Liver null (ERL + 3MC 4 mg/kg, day 14), single p.o. dose nelfinavir 50, paroxetine 10 or midazolam 5 mg/kg): 13 ± 5 mL/min/kg
Cmax ([2]; WT (Por^lox/lox), mouse, in vivo, Control (WT + corn oil), single p.o. dose nelfinavir 50 mg/kg, paroxetine 10 mg/kg or midazolam 5 mg/kg): 610 ± 110 ng/mL
increase in AUC [2, 6]: 22.9 fold
increase in Cmax [2, 6]: 7.3 fold
increase in half-life [2, 6]: 1.6 fold
decrease in clearance ([2]; liver and gut POR deletion relative to control): 26.3 fold
decrease in clearance [2, 7]: 9 fold
increase in AUC [2, 7]: 9 fold
increase in Cmax [2, 7]: 3 fold

Cc1ccc2cc3c(ccc4ccccc43)c3c2c1CC3 [3MC, 3-methylcholanthrene]
residual hepatic POR expression (densitometric quantification) (POR [4]; ERL mice, 3MC 40 mg/kg i.p., results not shown): < 4%
single dose required for knockdown in both liver and small intestine (POR [4]; ERL mice, i.p.): 20 to 40 mg/kg
single dose for knockdown of hepatic POR expression (POR [4]; ERL mice, i.p., liver only): 4 mg/kg
POR knockdown in large intestine (POR [4]; ERL mice, three daily doses of 3MC 40 mg/kg/day i.p., harvested 14 days after initial dose): 50%
dose needed to knockdown POR in liver of ERL mice, lower than in RCN animals (POR [4]; ERL vs RCN animals (ref 20)): 10 fold
decrease of cytochrome c reduction in small intestine (POR [5]; ERL animals treated with 40 mg/kg 3MC): 78%
hepatic POR activity as % of WT (POR [5]; livers from ERL mice 14 days after 3MC 40 mg/kg): approximately 4%
hepatic POR activity (cytochrome c reduction) (POR [5]; livers from ERL mice 14 days after 3MC 40 mg/kg, n=3, mean ± S.D., WT 60.3 ± 20.8): 2.2 ± 1.9 nmol cytochrome c reduced/min/mg
cytochrome c reduction in small intestine (POR [5]; small intestine of ERL animals treated with 40 mg/kg 3MC, n=3, mean ± S.D., comparator 36.2 ± 15.6): 8.2 ± 3.3 nmol cytochrome c reduced/min/mg
reduction in P450-mediated turnover of 7-benzyloxy-4-(trifluoromethyl)-coumarin (P450): 95%
reduction in P450-mediated turnover of methoxyresorufin (P450): 70%
increase in liver weight ([3]; single dose 3MC 40 mg/kg i.p., post mortem): 60–90%
